Laboratory results published in patent US12473332B2, “Modified peptides and associated methods of use” (Advanced Technologies For Novel Therapeutics, LLC, priority 2019, dated 2025).
Where no end group is shown, it is not given here.

Tests used:
p70S6K [1] = molecular target: T1, p70S6K (Homo sapiens, UniProt P23443); experiment: cell-based kinase assay, phosphorylation of intracellular substrates
T1 construct: phosphorylation levels of well-known intracellular substrates for each kinase; endogenous in cells
T1 sequence (P23443 whole entry): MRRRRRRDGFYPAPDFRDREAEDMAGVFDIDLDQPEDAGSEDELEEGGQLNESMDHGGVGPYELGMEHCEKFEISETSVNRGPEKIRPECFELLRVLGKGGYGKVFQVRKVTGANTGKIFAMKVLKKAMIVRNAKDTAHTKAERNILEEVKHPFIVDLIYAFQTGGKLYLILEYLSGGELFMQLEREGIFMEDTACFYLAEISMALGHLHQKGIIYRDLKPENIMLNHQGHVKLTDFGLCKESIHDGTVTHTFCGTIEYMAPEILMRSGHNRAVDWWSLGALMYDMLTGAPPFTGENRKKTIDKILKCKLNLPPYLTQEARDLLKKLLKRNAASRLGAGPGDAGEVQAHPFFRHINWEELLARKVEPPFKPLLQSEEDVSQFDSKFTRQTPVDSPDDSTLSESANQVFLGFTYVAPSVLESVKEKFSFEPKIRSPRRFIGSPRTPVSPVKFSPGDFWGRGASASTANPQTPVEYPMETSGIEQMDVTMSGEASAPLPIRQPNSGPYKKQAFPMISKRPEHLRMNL
Procedure: (§1) To test the specificity/selectivity of ZaTa as the inhibitor of AKT1 versus the other major kinases, a series of in vitro kinase assays was performed at IC50 for AKT1 and at ten times higher concentrations. A panel of the following 32 kinases was first tested in vitro using the active form of each kinase and a specific substrate: AKT2, AKT3, PKA, PKCα, PKCγ, PI3Kβ, PI3Kδ, PI3Kγ, SGK, PAK2, PAK3, SAPK2/p38, Abl, CaMKII, CDK1/cyclinB, CDK5/p35, CK1, CK2, CSK, GSK3α, GSK3β, JNK1α1, MAPK1, p70S6K, PDGFRα, PDGFRβ, PDK1, PKG1α, TrkB, JAK2, JAK3, and Syk. […] However, at ten times higher concentration, ZaTa inhibited AKT2 (63%), PI3Kδ (72%), p70S6K (64%), SGK (73%), PAK3 (83%), JAK3 (79%), TrkB (84%), and Abl (42%). To confirm the in vitro inhibitory effect on these kinases in cells, a cell-based assay was used to determine the effect of labeled ZaTa on the phosphorylation levels of well-known intracellular substrates for each kinase (Zipfel, et al. (2004) Curr. Biol. 14:1222-1231; Wang, et al. (2003) Arch. Biochem. Biophys. 410:7-15; King, et al. (1998) Nature 396:180-183; Rangone, et al. (2004)Eur. J. Neurosci. 19:273-279; Middlemas, et al. (1994)J. Biol. Chem. 269:5458-5466; Huang, et al. (1999) J. Biol. Chem. 274:7870-7878). The results of this cell-based kinase assay confirmed that ZaTa could inhibit p70S6K besides AKT. […]

AKT [2] = molecular target: T2, AKT (Mus musculus, UniProt P31750); experiment: stereotactic injection into brain striatum, phosphorylation of AKT substrates; format: in vivo; details: vs DMSO hemisphere
T2 construct: from tissue; host or cells: brain striatum, in vivo
T2 sequence (P31750 whole entry): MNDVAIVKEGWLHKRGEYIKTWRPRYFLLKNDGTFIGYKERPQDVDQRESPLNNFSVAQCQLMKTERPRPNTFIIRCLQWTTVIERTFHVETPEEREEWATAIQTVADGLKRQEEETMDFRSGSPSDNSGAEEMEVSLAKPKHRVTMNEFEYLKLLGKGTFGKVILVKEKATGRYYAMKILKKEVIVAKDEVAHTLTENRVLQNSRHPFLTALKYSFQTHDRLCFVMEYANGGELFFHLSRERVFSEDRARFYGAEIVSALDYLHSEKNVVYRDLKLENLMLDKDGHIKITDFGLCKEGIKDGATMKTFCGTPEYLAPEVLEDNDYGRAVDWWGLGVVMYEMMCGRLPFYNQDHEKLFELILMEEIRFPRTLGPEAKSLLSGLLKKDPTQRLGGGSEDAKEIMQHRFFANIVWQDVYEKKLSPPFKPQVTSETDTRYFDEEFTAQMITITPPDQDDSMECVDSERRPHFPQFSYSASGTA
Procedure: After the stereotactic injection of ZaTa peptide, a decrease in the phosphorylation level of AKT substrates in the striatum of a brain hemisphere was observed as compared to the other hemisphere that was injected with DMSO as the vehicle. […] As a specific substrate, the phosphorylation level of GSK-3β at Ser-9 was also evaluated. […] The decrease was specific to the AKT phosphorylation site on GSK-3β at Ser-9, since a change in the phosphorylation level of GSK-3β at Tyr-216 or GSK-3α at Tyr-279 was not observed. Moreover, the in vivo reduction of the phosphorylation of AKT substrates was more obvious at the injection site, since a significant change in the phosphorylation of AKT substrates in the frontal cortex or cerebellum between the two hemispheres was not observed.
The phenotypic consequence of disrupting the AKT-PKAc complex was also determined. ZaTa peptide was injected into the striatum of one hemisphere of the brain and DMSO, as vehicle, was injected into the other brain hemisphere of an adult C57BL/6 mouse under anesthesia. The brain was removed and dissected. Equal protein amounts from each hemisphere were subjected to immunoprecipitation by an anti-AKT antibody. […] To compare PKAc protein levels in the ZaTa- and vehicle-treated brain hemisphere lysates, western blot analysis was conducted.

PKAc = PKAc (Homo sapiens, UniProt P17612); experiment: independent kinase assays on PKAc catalytic activity; format: biochemical
JAK3 = molecular target: T3, JAK3 (Homo sapiens, UniProt P52333); experiment: in vitro kinase assay, selectivity; format: biochemical; parameters: dose or concentration left out as unconfirmed
T3 construct: phosphorylation levels of well-known intracellular substrates for each kinase; endogenous in cells
T3 sequence (P52333 whole entry, species assumed): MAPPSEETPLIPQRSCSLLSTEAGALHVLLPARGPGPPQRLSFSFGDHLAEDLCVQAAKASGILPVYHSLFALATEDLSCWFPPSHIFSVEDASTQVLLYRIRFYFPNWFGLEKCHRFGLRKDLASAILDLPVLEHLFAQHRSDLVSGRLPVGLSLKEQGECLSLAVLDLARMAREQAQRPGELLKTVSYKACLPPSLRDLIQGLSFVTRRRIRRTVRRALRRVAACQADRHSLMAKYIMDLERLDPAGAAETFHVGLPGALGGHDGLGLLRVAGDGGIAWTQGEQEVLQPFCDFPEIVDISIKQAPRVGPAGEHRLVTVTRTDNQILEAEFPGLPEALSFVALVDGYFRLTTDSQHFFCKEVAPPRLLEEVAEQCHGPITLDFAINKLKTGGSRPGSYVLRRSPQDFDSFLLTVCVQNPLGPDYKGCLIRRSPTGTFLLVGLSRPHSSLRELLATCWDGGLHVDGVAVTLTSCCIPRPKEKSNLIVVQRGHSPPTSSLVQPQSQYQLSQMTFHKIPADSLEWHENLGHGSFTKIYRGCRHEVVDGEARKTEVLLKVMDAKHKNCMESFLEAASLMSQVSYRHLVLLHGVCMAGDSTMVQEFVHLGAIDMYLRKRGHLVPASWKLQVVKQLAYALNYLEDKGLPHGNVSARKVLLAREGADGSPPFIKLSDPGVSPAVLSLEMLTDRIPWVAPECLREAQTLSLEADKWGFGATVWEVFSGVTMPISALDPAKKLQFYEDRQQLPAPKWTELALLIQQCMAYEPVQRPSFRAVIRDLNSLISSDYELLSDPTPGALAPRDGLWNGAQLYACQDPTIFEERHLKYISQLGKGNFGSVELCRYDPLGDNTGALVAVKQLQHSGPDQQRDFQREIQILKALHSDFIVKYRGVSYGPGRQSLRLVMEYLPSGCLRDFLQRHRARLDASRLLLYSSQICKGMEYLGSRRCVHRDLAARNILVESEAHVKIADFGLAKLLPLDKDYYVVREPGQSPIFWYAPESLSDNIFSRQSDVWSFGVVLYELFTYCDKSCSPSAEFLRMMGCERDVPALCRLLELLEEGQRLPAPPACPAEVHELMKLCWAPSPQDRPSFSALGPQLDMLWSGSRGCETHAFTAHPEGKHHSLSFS
Procedure: (§2) To test the specificity/selectivity of ZaTa as the inhibitor of AKT1 versus the other major kinases, a series of in vitro kinase assays was performed at IC50 for AKT1 and at ten times higher concentrations. A panel of the following 32 kinases was first tested in vitro using the active form of each kinase and a specific substrate: AKT2, AKT3, PKA, PKCα, PKCγ, PI3Kβ, PI3Kδ, PI3Kγ, SGK, PAK2, PAK3, SAPK2/p38, Abl, CaMKII, CDK1/cyclinB, CDK5/p35, CK1, CK2, CSK, GSK3α, GSK3β, JNK1α1, MAPK1, p70S6K, PDGFRα, PDGFRβ, PDK1, PKG1α, TrkB, JAK2, JAK3, and Syk. […] However, at ten times higher concentration, ZaTa inhibited AKT2 (63%), PI3Kδ (72%), p70S6K (64%), SGK (73%), PAK3 (83%), JAK3 (79%), TrkB (84%), and Abl (42%). To confirm the in vitro inhibitory effect on these kinases in cells, a cell-based assay was used to determine the effect of labeled ZaTa on the phosphorylation levels of well-known intracellular substrates for each kinase (Zipfel, et al. (2004) Curr. Biol. 14:1222-1231; Wang, et al. (2003) Arch. Biochem. Biophys. 410:7-15; King, et al. (1998) Nature 396:180-183; Rangone, et al. (2004)Eur. J. Neurosci. 19:273-279; Middlemas, et al. (1994)J. Biol. Chem. 269:5458-5466; Huang, et al. (1999) J. Biol. Chem. 274:7870-7878). The results of this cell-based kinase assay confirmed that ZaTa could inhibit p70S6K besides AKT. […] Given that most of the above-listed kinases have no known inhibitor, it is contemplated that the ZaTa could be used at micromolar concentrations in in vitro studies to inhibit the activity of the select kinases.

Abl = Abl (Homo sapiens, UniProt P00519); experiment: in vitro kinase assay, selectivity; format: biochemical; parameters: dose or concentration left out as unconfirmed
Procedure: as §2

AKT2 = AKT2 (Homo sapiens, UniProt P31751); experiment: in vitro kinase assay, selectivity; format: biochemical; parameters: dose or concentration left out as unconfirmed
Sequence of AKT2 (P31751 whole entry, species assumed): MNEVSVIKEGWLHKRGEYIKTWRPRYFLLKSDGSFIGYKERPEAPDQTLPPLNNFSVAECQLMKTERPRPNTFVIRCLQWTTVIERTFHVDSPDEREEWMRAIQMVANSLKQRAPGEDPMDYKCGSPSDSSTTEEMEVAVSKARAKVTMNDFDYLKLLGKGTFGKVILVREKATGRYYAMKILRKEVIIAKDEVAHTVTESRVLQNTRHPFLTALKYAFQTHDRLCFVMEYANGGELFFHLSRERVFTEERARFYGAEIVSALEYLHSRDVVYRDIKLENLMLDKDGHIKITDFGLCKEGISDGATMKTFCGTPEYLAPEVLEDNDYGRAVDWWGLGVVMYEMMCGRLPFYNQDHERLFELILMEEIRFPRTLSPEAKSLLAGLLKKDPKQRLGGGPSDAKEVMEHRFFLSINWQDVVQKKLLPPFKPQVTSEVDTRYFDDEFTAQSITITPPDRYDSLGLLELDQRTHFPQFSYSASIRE
Procedure: as §2

p70S6K [3] = molecular target: T1, p70S6K; experiment: in vitro kinase assay, selectivity; format: biochemical; parameters: dose or concentration left out as unconfirmed
Procedure: as §2

TrkB = TrkB (Homo sapiens, UniProt Q16620); experiment: in vitro kinase assay, selectivity; format: biochemical; parameters: dose or concentration left out as unconfirmed
Sequence of TrkB (Q16620 32-822, species assumed): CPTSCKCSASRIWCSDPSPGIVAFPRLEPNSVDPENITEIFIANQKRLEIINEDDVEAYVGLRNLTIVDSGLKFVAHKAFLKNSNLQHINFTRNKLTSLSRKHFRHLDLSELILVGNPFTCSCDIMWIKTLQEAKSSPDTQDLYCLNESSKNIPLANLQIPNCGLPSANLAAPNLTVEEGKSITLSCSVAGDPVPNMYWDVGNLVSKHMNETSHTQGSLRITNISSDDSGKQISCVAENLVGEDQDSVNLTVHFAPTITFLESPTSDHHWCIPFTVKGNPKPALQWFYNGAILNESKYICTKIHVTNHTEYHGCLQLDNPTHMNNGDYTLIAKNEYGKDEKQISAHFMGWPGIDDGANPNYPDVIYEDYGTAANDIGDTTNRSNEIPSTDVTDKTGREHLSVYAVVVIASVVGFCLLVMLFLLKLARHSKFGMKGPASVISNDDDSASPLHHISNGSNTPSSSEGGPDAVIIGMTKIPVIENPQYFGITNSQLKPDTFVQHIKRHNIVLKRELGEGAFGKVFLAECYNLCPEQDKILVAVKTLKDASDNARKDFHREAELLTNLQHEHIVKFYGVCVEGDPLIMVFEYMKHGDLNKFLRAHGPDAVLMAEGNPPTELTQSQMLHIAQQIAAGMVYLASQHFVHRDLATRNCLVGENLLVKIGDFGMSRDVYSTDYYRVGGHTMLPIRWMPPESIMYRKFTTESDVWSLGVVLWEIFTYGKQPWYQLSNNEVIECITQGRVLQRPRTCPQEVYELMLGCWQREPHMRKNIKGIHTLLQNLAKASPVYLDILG
Procedure: as §2

PAK3 = PAK3 (Homo sapiens, UniProt O75914); experiment: in vitro kinase assay, selectivity; format: biochemical; parameters: dose or concentration left out as unconfirmed
Sequence of PAK3 (O75914 whole entry, species assumed): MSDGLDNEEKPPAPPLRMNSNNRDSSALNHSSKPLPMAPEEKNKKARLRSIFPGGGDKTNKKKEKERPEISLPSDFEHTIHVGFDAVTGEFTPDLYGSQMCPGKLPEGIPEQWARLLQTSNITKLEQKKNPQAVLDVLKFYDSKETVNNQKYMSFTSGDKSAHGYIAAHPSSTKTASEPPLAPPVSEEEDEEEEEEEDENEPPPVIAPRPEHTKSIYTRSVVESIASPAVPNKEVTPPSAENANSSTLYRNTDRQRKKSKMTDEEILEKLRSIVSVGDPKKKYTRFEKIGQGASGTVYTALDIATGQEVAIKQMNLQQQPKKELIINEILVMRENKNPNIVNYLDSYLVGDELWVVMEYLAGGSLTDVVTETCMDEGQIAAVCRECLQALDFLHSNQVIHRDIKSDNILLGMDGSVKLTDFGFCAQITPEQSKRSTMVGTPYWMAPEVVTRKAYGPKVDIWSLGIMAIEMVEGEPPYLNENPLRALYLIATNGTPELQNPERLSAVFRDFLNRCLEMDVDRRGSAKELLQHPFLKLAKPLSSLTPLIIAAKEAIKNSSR
Procedure: as §2

SGK = molecular target: T4, SGK (Homo sapiens, UniProt O00141); experiment: in vitro kinase assay, selectivity; format: biochemical; parameters: dose or concentration left out as unconfirmed
T4 construct: phosphorylation levels of well-known intracellular substrates for each kinase; endogenous in cells
T4 sequence (O00141 whole entry, species assumed): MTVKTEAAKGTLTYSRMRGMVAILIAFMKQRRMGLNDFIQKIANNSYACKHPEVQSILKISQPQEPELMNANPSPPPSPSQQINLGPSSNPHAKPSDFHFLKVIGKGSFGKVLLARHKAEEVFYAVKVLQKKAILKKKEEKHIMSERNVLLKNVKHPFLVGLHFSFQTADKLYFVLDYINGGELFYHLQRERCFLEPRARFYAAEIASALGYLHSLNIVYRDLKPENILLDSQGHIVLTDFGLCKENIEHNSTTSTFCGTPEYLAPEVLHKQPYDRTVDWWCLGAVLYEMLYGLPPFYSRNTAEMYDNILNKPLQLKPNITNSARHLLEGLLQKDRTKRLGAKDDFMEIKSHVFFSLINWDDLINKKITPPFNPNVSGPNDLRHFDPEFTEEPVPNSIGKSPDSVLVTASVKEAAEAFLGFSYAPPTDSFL
Procedure: as §2

AKT [4] = molecular target: AKT (Homo sapiens, UniProt P31749); experiment: in vitro AKT kinase assay with Ser-9 GSK-3 GST fusion protein substrate; PKAc peptide library screen; format: biochemical; details: Ser-9 GSK-3 GST substrate
Sequence of AKT (Homo sapiens, UniProt P31749) (P31749 whole entry, the tested form may be a part): as the sequence (P31750 whole entry) above, with N2S, S50A, A100T, R112K, T117E, T389K, N410G, D415H counted along it

panel of 32 kinases = experiment: in vitro kinase selectivity panel of 32 kinases; format: biochemical; details: at IC50 for AKT1 (0.1 μM)
Procedure: as §1

[5] = trypan blue staining, live and dead cell count; format: cell-based; details: 12 to 72 hours
From the text: Therefore, in addition to capturing live images, cells were stained with trypan blue at different time intervals following treatment with ZaTa and counted by a light microscope using a hemocytometer.

## AKRVKGRTWTLCGTPEY [Peptide 53, A-K-R-V-K-G-R-T-W-T-L-C-G-T-P-E-Y]
p70S6K [1]
  inhibition of p70S6K in cells: could inhibit
AKT [2]; one hour after stereotactic injection
  phosphorylation level of AKT substrates in vivo: significant decrease in the phosphorylation level of AKT substrates
AKT [2]; stereotactic injection
  phosphorylation level of GSK-3β at Ser-9 in vivo: specific reduction
PKAc
  inhibitory effect on catalytic activity of PKAc: did not exhibit any inhibitory effect
JAK3
  inhibition: 79%
Abl
  inhibition: 42%
AKT2
  inhibition: 63%
p70S6K [3]
  inhibition: 64%
TrkB
  inhibition: 84%
PAK3
  inhibition: 83%
SGK
  inhibition: 73%
AKT [4]
  inhibitory effect on catalytic activity of AKT: significant inhibitory effects
AKT [4]; listed as ZaTa
  inhibitory effect on catalytic activity of AKT: significantly reduced
Panel of 32 kinases
  inhibition of panel kinases: no significant inhibition
[5]
  number of dead cells: a significant increase in the number of dead cells was not seen
